Measured values as given in the NIST ThermoML archive (doi:10.1016/j.jct.2019.06.011).

Conditions: Liquid, Gas chromatography

CC(C)=CCC[C@@H](C)c1ccc(C)cc1 [(-)-α-curcumene]
Conditions | vapor or sublimation pressure [kPa]
298.15 K | 0.00097
310 K | 0.003
320 K | 0.007
330 K | 0.015
340 K | 0.032
350 K | 0.063
360 K | 0.12
370 K | 0.21
380 K | 0.37
390 K | 0.62
400 K | 0.99
410 K | 1.6
420 K | 2.4
430 K | 3.5
440 K | 5.1
450 K | 7.3
460 K | 10
470 K | 14
480 K | 19
490 K | 25
500 K | 33
510 K | 42
520 K | 54
530 K | 68
540 K | 85
548.3 K | 101.3

CC(C)=CCC[C@H](C)[C@@H]1C=CC(C)=CC1 [zingiberene]
Conditions | vapor or sublimation pressure [kPa]
298.15 K | 0.00081
310 K | 0.0025
320 K | 0.006
330 K | 0.013
340 K | 0.028
350 K | 0.056
360 K | 0.11
370 K | 0.19
380 K | 0.33
390 K | 0.56
400 K | 0.91
410 K | 1.4
420 K | 2.2
430 K | 3.3
440 K | 4.8
450 K | 6.8
460 K | 9.6
470 K | 13
480 K | 18
490 K | 24
500 K | 31
510 K | 41
520 K | 52
530 K | 66
540 K | 83
549.5 K | 101.3

C=C1C=C[C@@H]([C@@H](C)CCC=C(C)C)CC1 [β-sesquiphellandrene]
Conditions | vapor or sublimation pressure [kPa]
298.15 K | 0.00063
310 K | 0.002
320 K | 0.0048
330 K | 0.011
340 K | 0.023
350 K | 0.046
360 K | 0.087
370 K | 0.16
380 K | 0.28
390 K | 0.47
400 K | 0.76
410 K | 1.2
420 K | 1.8
430 K | 2.8
440 K | 4
450 K | 5.8
460 K | 8.2
470 K | 11
480 K | 15
490 K | 20
500 K | 27
510 K | 35
520 K | 45
530 K | 57
540 K | 71
556.5 K | 101.3
